Experimental data: PMC4060102, “Improved Histone Deacetylase Inhibitors as Therapeutics for the Neurodegenerative Disease Friedreich's Ataxia: A New Synthetic Route” (Pharmaceuticals, 2011)
pIC50: −log10 of the molar value.

Tests used:
[1] = system: GM15850 cells (FRDA lymphoblastoid cell line); experiment: In-cell deacetylase inhibition assay (DAC assay); assay type: cell-based, human; conditions: 4 h incubation
Description: Compound dilutions were made in 100% DMSO followed by parallel dilution in media with 2% DMSO. […] The final concentration of DMSO in each well was 0.2%.

[2] = Cytotoxicity, antiproliferation assay; assay type: cell-based; conditions: human, Hct116 cells
Hct116 cells = experiment: Cytotoxicity, antiproliferation assay; assay type: cell-based; conditions: for ratio cytotoxicity/DAC: Hct116 antiproliferation IC50 / in-cell DAC IC50
[3] = system: FXN gene transcription in primary lymphocytes from a FRDA patient; experiment: Frataxin mRNA assay (quantitative RT-PCR); assay type: cell-based, human; conditions: 10 μM compound, 48 h, primary lymphocytes from FRDA patient donor blood, normalized to DMSO control
Description: In general, the activity of a compound against HDAC3 is related to its ability to increase FXN gene transcription. Compounds click-1 and -2 were assayed for their ability to increase transcription of the FXN gene in primary lymphocytes from a FRDA patient, as previously described.
Quantitative RT-PCR was used to estimate FXN mRNA levels after treatment with 10 μM compound for 48 h, and values were normalized to the level of FXN mRNA observed for a DMSO vehicle control.
Figure 3 Click-derived HDAC inhibitors induce frataxin gene expression in primary lymphocytes isolated from FRDA patient donor blood samples, compared to a standard pimelic o-aminobenzamide (109). Concentration of each compound is 10 μM.

[4] = Acid stability determination; assay type: physicochemical; conditions: pH = 2, 50 °C; for half-life at 100 µM: 0.01 M HCl in deionized water, read-out: t1/2 in acidic conditions (converted)
Description: Immediately after mixing, an aliquot (100 μL) was sampled and analyzed by HPLC/UV. The area under the compound peak was determined and used as the time zero reference point. […] These were analyzed by the same HPLC/UV method and the area of the peak corresponding to the test compound was measured. Percent remaining at a given time point was then calculated as the ratio of the area under the peak after incubation to that at time zero times 100.

in vivo = conditions: rat, 5 mg/kg
recombinant HDAC1 = recombinant HDAC1 (Homo sapiens, UniProt Q13547); experiment: HDAC enzyme inhibition assay (Fluor-de-Lys), HDAC1
recombinant HDAC1, sequence (Q13547 whole entry): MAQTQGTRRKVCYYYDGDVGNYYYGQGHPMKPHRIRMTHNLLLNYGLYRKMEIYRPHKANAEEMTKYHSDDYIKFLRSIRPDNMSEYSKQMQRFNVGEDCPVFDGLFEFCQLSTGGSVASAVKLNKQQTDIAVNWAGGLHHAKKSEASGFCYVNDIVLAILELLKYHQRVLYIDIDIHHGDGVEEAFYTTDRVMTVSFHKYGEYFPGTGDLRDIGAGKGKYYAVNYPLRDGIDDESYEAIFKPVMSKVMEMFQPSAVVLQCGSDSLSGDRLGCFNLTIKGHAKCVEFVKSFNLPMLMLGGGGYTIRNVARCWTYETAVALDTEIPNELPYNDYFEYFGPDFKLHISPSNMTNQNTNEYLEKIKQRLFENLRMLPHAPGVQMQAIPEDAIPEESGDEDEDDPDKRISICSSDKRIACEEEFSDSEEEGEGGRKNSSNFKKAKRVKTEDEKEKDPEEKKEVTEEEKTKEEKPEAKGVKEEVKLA

recombinant HDAC2 = recombinant HDAC2 (Homo sapiens, UniProt Q92769); experiment: HDAC enzyme inhibition assay (Fluor-de-Lys), HDAC2
recombinant HDAC2, sequence (Q92769 whole entry): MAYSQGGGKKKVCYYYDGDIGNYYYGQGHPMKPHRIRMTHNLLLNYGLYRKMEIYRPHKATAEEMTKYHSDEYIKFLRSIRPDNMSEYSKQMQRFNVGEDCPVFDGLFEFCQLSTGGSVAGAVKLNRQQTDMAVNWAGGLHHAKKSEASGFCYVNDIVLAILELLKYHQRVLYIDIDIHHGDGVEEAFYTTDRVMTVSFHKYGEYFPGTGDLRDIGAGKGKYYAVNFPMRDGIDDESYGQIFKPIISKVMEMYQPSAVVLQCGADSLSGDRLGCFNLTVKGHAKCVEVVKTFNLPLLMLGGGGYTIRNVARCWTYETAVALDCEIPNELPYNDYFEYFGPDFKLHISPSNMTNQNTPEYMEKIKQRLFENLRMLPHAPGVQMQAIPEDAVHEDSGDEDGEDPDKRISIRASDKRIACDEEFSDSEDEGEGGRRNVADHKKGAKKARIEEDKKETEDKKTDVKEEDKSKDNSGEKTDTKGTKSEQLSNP

HDAC3/NcoR2 = HDAC3/NcoR2 (Homo sapiens, UniProt O15379); experiment: HDAC enzyme inhibition assay (Fluor-de-Lys), HDAC3; conditions: for selectivity for HDAC3 over HDAC1: ratio of IC50 values HDAC1/HDAC3
HDAC3/NcoR2, sequence (O15379 whole entry): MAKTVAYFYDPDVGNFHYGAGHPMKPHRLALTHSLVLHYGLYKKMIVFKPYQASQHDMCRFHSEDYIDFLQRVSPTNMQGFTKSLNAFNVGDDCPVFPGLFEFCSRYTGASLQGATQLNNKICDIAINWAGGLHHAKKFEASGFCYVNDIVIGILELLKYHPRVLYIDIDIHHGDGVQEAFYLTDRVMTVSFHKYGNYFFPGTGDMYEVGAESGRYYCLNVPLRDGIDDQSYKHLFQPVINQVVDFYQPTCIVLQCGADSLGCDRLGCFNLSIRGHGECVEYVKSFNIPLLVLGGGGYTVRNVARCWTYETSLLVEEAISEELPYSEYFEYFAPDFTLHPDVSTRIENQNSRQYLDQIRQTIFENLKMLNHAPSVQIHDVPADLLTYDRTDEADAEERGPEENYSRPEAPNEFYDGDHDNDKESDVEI
HDAC3/NcoR2, sequence (Q9Y618 395-489 partner limits assumed): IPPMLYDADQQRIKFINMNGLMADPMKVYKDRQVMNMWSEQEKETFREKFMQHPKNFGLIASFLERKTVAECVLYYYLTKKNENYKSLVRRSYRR

[5] = Brain penetration in mouse; assay type: in vivo; conditions: brain and plasma
[6] = Compound stability (method not described); assay type: physicochemical; conditions: conditions not stated
Description: All three azides 5, 8 and 16 were subjected to click chemistry with common intermediate 3 to give the corresponding triazole products click-1, click-2 and click-3 (Scheme 5). Each compound was characterized by ^1H-, ^13C-NMR and mass spectrometry.

Row | pIC50 ([1]; Homo sapiens) | half-life at 100 µM [4] | improvement of acid half-life relative to HDACi 109 [4] | pIC50 (recombinant HDAC1) | pIC50 (recombinant HDAC2) | pIC50 (HDAC3/NcoR2) | selectivity for HDAC3 over HDAC1 (HDAC3/NcoR2) | SMILES | pIC50 [2] | ratio cytotoxicity/DAC (Hct116 cells) | promoting transcription of the silenced FXN gene (FXN mRNA) [3] | further results
1 | 5.25 | 33 h | 5.5 fold | 7.18 | 6.32 | 7.55 | 2.4 fold | Nc1ccccc1NC(=O)/C=C/c1cn(CC=Cc2ccccc2)nn1 [Click-1, (E)-N-(2-Aminophenyl)-3-(1-cinnamyl-1H-1,2,3-triazol-4-yl)acrylamide] | 4.64 | 4.1 | highly active | Kp (in vivo; brain and plasma, intravenous): 0.33; Cmax (in vivo; brain, iv): 800 ng/g; Tmax (in vivo; brain, iv): 5 min
2 | 5.29 | 24 h | 4 fold | 7.34 | 6.33 | 7.41 | 1.2 fold | Nc1ccccc1NC(=O)/C=C/c1cn(C/C=C/c2ccc3cc[nH]c3c2)nn1 [Click-2, (E)-3-(1-((E)-3-(1H-Indol-6-yl)allyl)-1H-1,2,3-triazol-4-yl)-N-(2-aminophenyl)acrylamide] | 4.57 | 5.3 | highly active | Kp [5]: 0.03
3 | 4.53 |  |  |  |  |  |  | Nc1ccccc1NC(=O)/C=C/c1cn(CCOc2ccc3cc[nH]c3c2)nn1 [Click-3, (E)-3-(1-(2-((1H-Indol-6-yl)oxy)ethyl)-1H-1,2,3-triazol-4-yl)-N-(2-aminophenyl)acrylamide] |  |  |  | stability [6]: poor stability
4 |  |  |  |  |  |  |  | Nc1ccccc1NC(=O)c1ccc(CNC(=O)OCc2cccnc2)cc1 [MS-275, reference compound] |  |  |  | pIC50 [1]: 5.72; pIC50 (Hct116 cells; Hct116 cells): 6.00

Row | SMILES | pIC50 ([1]; Homo sapiens) | half-life at 100 µM [4] | improvement of acid half-life relative to HDACi 109 [4] | pIC50 (recombinant HDAC1) | pIC50 (recombinant HDAC2) | pIC50 (HDAC3/NcoR2) | selectivity for HDAC3 over HDAC1 (HDAC3/NcoR2) | pIC50 [2] | ratio cytotoxicity/DAC (Hct116 cells) | promoting transcription of the silenced FXN gene (FXN mRNA) [3] | further results
5 | Cc1ccc(C(=O)NCCCCCC(=O)Nc2ccccc2N)cc1 [compound 109] |  | 6 h |  |  |  |  |  |  |  |  | 
